We go through five molecules from patent publication US8372342B2, “Apparatus for monitoring thrombus formation and method of monitoring thrombus formation” (Fujimori Kogyo Co., Ltd., priority 2005, dated 2013).

Series [1] concerns thrombus formation in citrate-treated blood. In words: Thrombus formation monitoring in the FIG. 1 flow apparatus, collagen-coated constriction portion, citrate-treated blood released with CaCl2. It is filed as cell-based. The conditions noted are these: 1 mg/ml added to solution A. How it is done:
An apparatus for monitoring thrombus formation illustrated in FIG. 1 is used to fill a syringe 20 with 50 ml of a citrate-treated blood (solution A) in which 9 parts by volume of the blood immediately after the blood sample is mixed with 1 part by volume of 3.2% sodium citrate, and to fill a syringe 21 with 10 ml of 0.2M CaCl2 (solution B). The syringes 20 and 21 are connected to transparent nylon tubes (inlet tube 11 and drug tube 12) with an inner diameter of 3 mm. Both tubes are joined together at a T-shaped joint (cheese) and then connected to a polycarbonate thrombus formation chamber 10 of 3 mm in inner diameter and 1 cm in length through a single nylon tube (inlet tube 11) of 3 mm in inner diameter and 3 cm in length. The thrombus formation chamber 10 itself is constructed as a removable cassette. The joint portion between the cassette and the nylon tube (inlet tube 11) is made liquid-tight via an O-ring made of silicon rubber. A glass member is fixed on the inside of the cassette by an epoxy-based adhesive, thereby forming a constriction portion 14. The constriction portion 14 is designed so that the most narrowed site of the constriction portion 14 may have an inner diameter (the maximum gap between the constriction portion 14 and the inner wall) of 1.5 mm. In addition, the thrombus formation chamber 10 is connected liquid-tight with a tube as a discharge tube 13 having the same diameter and formed of the same material through an O-ring made of silicon rubber, and thus a thrombus monitoring apparatus 1 as illustrated in FIG. 1 is manufactured. Note that flange-type pressure gauges 40 and 41 are mounted on parts of the inlet tube 11 and the discharge tube 13 near the thrombus formation chamber 10 via joints (cheeses), respectively. […]
An apparatus for monitoring thrombus formation 1 is prepared and thrombus formation is then monitored in a manner similar to Example 1, except that the solution A of Example 1 is further added with an unfractionated heparin (prepared from pig mucous) at a concentration of 1 mg/ml.

The subject of series [2] is thrombus formation in whole blood. The series is described as follows: Microchip pressure measurement, collagen/tissue thromboplastin chamber, blood anticoagulated with trypsin inhibitor and thrombin aptamers, released with antisense DNAs (Example 17 system). It is filed as cell-based. The source says:
A microchip 300, where the substrate and the cover of the microchip shown in FIG. 9(B) and FIG. 9(C), respectively, made of the same materials as those of Example 7 were pressure-bonded, was used. The microchip 300 comprises a blood coagulation inhibitor inlet tube 322 and a discharge tube 313 which were connected to the substrate 100 as in the case with the discharge tube of Example 7. However, the grooves of the microchip 300 of FIG. 9 are all formed of 200 μm in depth. […] A solution was prepared such that 1 vial of the Sysmex Corporation PT reagent (tissue thromboplastin) was dissolved in 1 ml of purified water and then dialyzed in purified water, the dialyzed product in purified water was mixed with collagen type I (manufactured by Nitta Gelatin Inc.) at a ratio of 1:1. After that, the applied portion was dried at 4° C. in air and thrombus formation chamber 311 was covered, which was used as a thrombus inducing material 315. The blood was collected after the addition of an anticoagulation treatment agent such that the final concentrations of the respective components in the syringe were 25 μg/ml for maize-derived trypsin inhibitor, 10 μM for exosite I thrombin aptamer, 10 μM for exosite II thrombin aptarner (5′-[…]-3′: SEQ D NO. 3). Immediately before monitoring, the blood thus collected was added with antisense DNAs with respect to thrombin aptamers of exosite I and exosite II so that each of them would reach to a concentration of 40 μM. Then, a syringe (1 ml syringe, manufactured by Terumo Corporation) was filled with the blood and provided as the sample syringe 320 shown in FIG. 9. The My Flow (manufactured by Arbiotec Co., Ltd), which is a micro-feeding pump capable of monitoring the inner pressure of a liquid-feeding pump, was connected to a pressure inlet tube 317 shown in FIG. 9. Mineral oil was pressed into the microchip 300 from the top of the syringe 320 and the blood was pushed out into the microchip 300 at a flow rate of 50 μl/min, while the pressure exerted on the sample syringe 320 was monitored. […]

The test system of series [3] is blood coagulation. In words: Thromboelastogram waveform of coagulation (Reference Experiment 3). It counts as cell-based. The conditions noted are these: aptamers to exosite I and II; stored at room temperature for 15 minutes. As for the experimental part:
FIG. 11(A) is a result obtained by analyzing a thromboelastogram waveform of coagulation by adding 10 μM of each of aptamers for exosite I and exosite II to the blood, and after storing the blood at room temperature for 15 minutes, adding 40 μM of each of antisense DNAs of both aptamer. FIG. 11(B) illustrates the thromboelastogram waveform of the blood just after blood sampling.
FIG. 11(A) is an analysis of a waveform of coagulation with thromboelastogram by storing the blood added with […] of aptamers to exosite I and exosite II at room temperature for 15 minutes, and then by adding 40 μM of antisense DNAs of both aptamers. FIG. 11(B) is a thromboelastogram waveform of the blood just after blood sampling.

Series [4] concerns blood coagulation. The series is described as follows: Time taken for coagulation of blood in Eppendorf tubes (Reference Experiment 1). It is filed as cell-based. As for the experimental part:
The blood immediately after blood sampling, the blood prepared by adding a volume of one tenth of 300 μg/ml of a maize-derived trypsin inhibitor to the first blood, and the blood prepared by adding a thrombin aptamer that recognizes exosite I to the second blood so as to be 5 μM in concentration were provided. Then, for these three kinds of the blood, the time taken for coagulation were measured in Eppendorf tubes (made of polypropylene). The sample was reversed up side down every one minute and the flowability thereof was confirmed.
Further, when 5 μM of a thrombin aptamer that recognizes exosite I and 5 μM of a thrombin aptamer that recognizes exosite II were used in combination, blood coagulation was not confirmed even after 3 hours even in the case of the blood free of the trypsin inhibitor.

Series [5] deals with thrombus formation in citrate-treated blood. The series is described as follows: Thrombus formation monitoring in a glass tube chamber with collagen-immersed silk as thrombus inducing material. It is filed as cell-based. Conditions: 0.1 mg/ml added to solution A; flown for 15 minutes.
Procedure: After flowing the solution A in the syringe 20 at 3 ml/min and the solution B in the syringe 21 at 0.3 ml/min for 15 minutes, the thrombus formation chamber 10 was detached and the inside thereof was then washed with a physiological saline solution.
The subject of series [6] is plasma coagulation (APTT). The series is described as follows: APTT measurement on plasma (Reference Experiment 2). It counts as biochemical. Conditions: plasma added with 500-μM exosite I recognizing thrombin aptamer. As for the experimental part:
The measurement of APTT was carried out on […] of plasma with respect to each of sample A added with […] of physiological saline solution, sample B added with […] of 500-μM exosite I recognizing thrombin aptamer, and sample C added with 10 μl of a solution containing 500-μM exosite I recognizing thrombin aptamer and 1500-μM exosite I recognizing thrombin aptamer antisense DNA. The sample A was 44 seconds, the sample B was 2 minutes or more, and the sample C was 45 seconds.

Series [7] deals with thrombus formation in whole blood. The series is described as follows: Microchip pressure measurement, blood anticoagulated with citric acid and maize-derived trypsin inhibitor, released with calcium chloride (Example 20 system). It is filed as cell-based. The conditions noted are these: 2 μg/ml. As for the experimental part: The blood sampling was carried out with the addition of 3.2% citric acid so that the ratio of citric acid and the blood be 1:9. Further, the blood was added with a maize-derived trypsin inhibitor at a concentration of 25 μg/ml to carry out an anticoagulation reaction. Immediately after adding calcium chloride to the anticoagulated blood so that it should reach 15 mM with respect to the anticoagulated blood at the time of monitoring thrombus formation, the blood was added to a syringe (1-ml syringe, manufactured by Terumo Corporation), followed by inflowing the blood into the same microchip as that of Example 17 at a flow rate of 40 μl/min. Subsequently, a change in pressure was measured using the same system as that of Example 17. The pressure began to rise 15 minutes after starting the pressure measurement and it rose up to about 60 kPa.
The blood sampling was carried out with the addition of an anticoagulation treatment agent in manner similar to Example 20. Subsequently, the same procedure as that of Example 20 was carried out, except that ReoPro (LILLY Co., Ltd.) was added at a concentration of 2 μg/ml. The measurement of pressure was then performed. The pressure began to rise 20 minutes after starting the pressure measurement and it rose up to about 15 kPa after 25 minutes (FIG. 15).

In the case of unfractionated heparin, the “thrombus in the thrombus formation chamber by visual observation after washing” value in series [1] was “thrombus cannot be found”. In series [1] (solutions flown for 10 minutes), the “decrease in blood flow discharged from the discharge tube” value was “no decrease in blood flow”; the “pressure difference between inlet tube and discharge tube pressure gauges” value is on record as “no pressure difference”. Also, in series [2] (1 unit/ml, flow rate 50 μl/min), the “pressure rose up to” value is on record as “about 10 kPa” and the “time after starting the measurement at which pressure began to rise” value worked out at 13 min.

In the case of “thrombin aptamer that recognizes exosite I and thrombin aptamer that recognizes exosite II: combination of exosite I aptamer (SEQ ID NO. 1) and exosite II aptamer 5′-AGTCCGTGGTAGGGCAGGTTGGGGTGACT-3′ (SEQ ID NO. 3) (chain 1 GGTTGGTGTGGTTGG; listed as DNA, chemistry not given here)”, in series [3], the “effect on blood storage / coagulation by thromboelastogram” value is “allow the blood to be stored”. Besides, in series [4] (5 μM of each aptamer in combination, blood free of the trypsin inhibitor), the “time without confirmed blood coagulation” value was greater than 3 h.

In the case of `CC1CNc2c(cccc2S(=O)(=O)N[C@@H](CCCNC(=N)N)C(=O)N2CC[C@@H](C)C[C@@H]2C(=O)O)C1` (stereo partly shown) [Argatroban], the “presence of thrombus in glass tube by visual observation after washing” value in series [5] was “did not confirm the presence of thrombus”.

“5′-GGTTGGTGTGGTTGG-3′ (listed as DNA, chemistry not given here) [thrombin aptamer]”: the coagulation time in series [4] (5 μM exosite I thrombin aptamer added to the blood already containing trypsin inhibitor) came out at 62 min. The APTT in series [6] was no less than 2 min.

B1: ReoPro: ReoPro (LILLY Co., Ltd.) (antibody, chains of the INN, looked up, V domains shown)
VH: EVQLQQSGTVLARPGASVKMSCEASGYTFTNYWMHWVKQRPGQGLEWIGAIYPGNSDTSYIQKFKGKAKLTAVTSTTSVYMELSSLTNEDSAVYYCTLYDGYYVFAYWGQGTLVTVSA
VL: EIVLTQSPVTLSVTPGDSVSLSCRASRDISNNLHWFQQTSHESPRLLIKYASQSMSGIPSRFSGSGSGTDFTLSINSVETEDFGMYFCQQTNSWPYTFGGGTKLEIK
modifications: Fab
With B1, in series [2] (50 μg/ml, measurement for 18 minutes), the increase in pressure result is reported as “could not be confirmed”. Besides, the “pressure rose up to” value in series [7] (after 25 minutes) was “about 15 kPa”. The “time after starting the pressure measurement at which pressure began to rise” value in series [7] (flow rate 40 μl/min) was 20 min.
